# According to the SangsterLogP compilation:
# Assay: method code SF-HPLC, from DOI: 10.1111/j.2042-7158.1987.tb06262.x, PMID: 2884287
# Details: pH 3.0
row,logD,Compound
1,-0.57,Cn1c(=O)[nH]c2[nH]c(=O)[nH]c2c1=O
2,-0.89,Cn1cnc2[nH]c(=O)[nH]c(=O)c21
3,-0.27,Cn1c(=O)[nH]c2nc[nH]c2c1=O
4,-0.22,Cn1c(=O)[nH]c2[nH]c(=O)n(C)c2c1=O
5,-1.08,Cn1c(=O)[nH]c(=O)c2[nH]c(=O)[nH]c21

# The next lines start with the molecule.
row,Compound,logD
1,Cn1c(=O)c2c([nH]c(=O)n2C)n(C)c1=O,-0.37
2,Cn1c(=O)[nH]c(=O)c2c1[nH]c(=O)n2C,-1.33
3,CN(C=O)c1c(N)n(C)c(=O)n(C)c1=O,-1.32
4,Cn1c(=O)c2[nH]c(=O)[nH]c2n(C)c1=O,-0.52
5,CN(C=O)c1c(N)[nH]c(=O)n(C)c1=O,-2.03
6,CN(C=O)c1c(N)n(C)c(=O)[nH]c1=O,-1.3
7,Cn1c(N)c(NC=O)c(=O)n(C)c1=O,-0.64
8,Cn1c(=O)[nH]c2[nH]c(=O)[nH]c(=O)c21,-1.18
